Measured values: patent US20170173114A1, “METHODS AND COMPOSITIONS FOR INDUCTION OF UCP1 EXPRESSION” (Joslin Diabetes Center, Inc., priority 2014, published 2017)
“Also recorded” adds a separate entry of the source.

Columns and labels:
Sirt2 = target: T1, Sirt2 (Mus musculus, UniProt Q923E4); test: EX 527 effect on FGF6-induced UCP1 and PTGS2 expression in WT-1 preadipocytes; format: cell-based, murine; conditions: 50 uM pretreatment 3 hours, then EX and FGF6 18 hours
T1 construct: endogenous in cells; host or cells: WT-1 murine brown preadipocytes
T1 sequence (Q923E4 2-737 limits assumed): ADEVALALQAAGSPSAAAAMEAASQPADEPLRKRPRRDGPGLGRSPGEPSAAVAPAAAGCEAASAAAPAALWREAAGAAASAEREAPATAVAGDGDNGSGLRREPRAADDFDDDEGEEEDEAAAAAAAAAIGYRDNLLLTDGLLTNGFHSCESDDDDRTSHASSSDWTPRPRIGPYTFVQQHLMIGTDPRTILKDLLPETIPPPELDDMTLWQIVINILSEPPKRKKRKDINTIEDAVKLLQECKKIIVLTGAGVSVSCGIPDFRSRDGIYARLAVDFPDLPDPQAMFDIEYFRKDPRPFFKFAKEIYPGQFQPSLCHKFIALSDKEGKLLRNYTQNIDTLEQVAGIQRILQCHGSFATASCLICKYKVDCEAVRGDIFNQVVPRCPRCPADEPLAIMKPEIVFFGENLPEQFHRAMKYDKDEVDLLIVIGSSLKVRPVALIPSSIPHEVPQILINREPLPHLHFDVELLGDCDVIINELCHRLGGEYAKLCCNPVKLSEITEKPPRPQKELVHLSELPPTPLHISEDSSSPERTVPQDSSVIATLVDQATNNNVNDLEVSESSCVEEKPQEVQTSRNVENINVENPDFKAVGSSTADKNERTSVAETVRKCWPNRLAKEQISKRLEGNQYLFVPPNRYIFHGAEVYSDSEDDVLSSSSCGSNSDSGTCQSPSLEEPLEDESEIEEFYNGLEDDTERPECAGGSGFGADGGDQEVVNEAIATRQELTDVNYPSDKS
Protocol: (§1) To determine if the […] pathway is utilized by FGF6 to regulate UCP1 expression and mitochondrial function, WT-1 preadipocytes were pretreated with the […] selective inhibitor EX (EX 527; Santa Cruz Biotechnology) at concentrations of 0 uM or 50 uM in growth media (DMEM+10% FBS) for 3 hours. Following EX treatment, the cells were treated with EX and FGF6 for 18 hours.

[1] = target: T2, (Mus musculus, UniProt Q923E4); test: as above; format: cell-based, murine; conditions: 50 uM pretreatment 3 hours, then EX and FGF6 18 hours
T2 construct: endogenous in cells; host or cells: WT-1 murine brown preadipocytes
T2 sequence (Q923E4 2-737 limits assumed): T1 sequence (Q923E4 2-737 limits assumed)
Protocol: as §1

Structure (SMILES): NC(=O)C1CCCc2c1[nH]c1ccc(Cl)cc21 (centres unmarked) [EX]
- FGF6-induced UCP1 mRNA expression (Sirt2): inhibited UCP1 expression; also recorded: suppression
- FGF6-induced PTGS2 expression level [1]: reduced; also recorded: suppression
